# Values quoted from earlier work, collected in patent US9540691B2, “Assays and methods for selecting a treatment regimen for a subject with depression” (THE GENERAL HOSPITAL CORPORATION, priority 2011, dated 2017).
# Like-named read-outs stand apart in the source and are kept apart here.
# Test system: adults with DSM-IV MDD, partial or nonresponse to an SSRI
# Settings: cited from earlier work
compound,measurement,setting,value
Nc1nc(=O)c2c([nH]1)NCC(CNc1ccc(C(=O)N[C@@H](CCC(=O)O)C(=O)O)cc1)N2C=O (mixture of isomers) [Folinic acid],HAM-D-17 score after treatment,"16 completers, decreased from 19.1+/−3.9, p<0.01",12.8+/−7.0
same,remission (HAM-D-17 no greater than 7),ITT sample,18%
same,remission (HAM-D-17 no greater than 7),completers,19%
same,response (at least 50% reduction in HAM-D-17),completers,31%
same,Folate levels after treatment,"folinic acid 15-30 mg/day added to SSRIs, 8 weeks, rose from 28+/−19, p<0.001",301 ± 203 ng/mL
same,response (at least 50% reduction in HAM-D-17),intent-to-treat (ITT) sample,27%
